Experimental data taken from patent EP4656642A1, “ESTROGEN RECEPTOR PROTEOLYSIS TARGETING CHIMERA COMPOUND AND USE THEREOF” (GAN & LEE PHARM CO., LTD, priority 2023, dated 2024).

Columns and labels:
Type in all cases: cell-based
[1] = test system: T-47D cells; assay: Inhibition of cell proliferation in T-47D cells (CCK-8, 6 days); settings: 6 days of treatment
How it was run: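 T-47D cells at 3,000 cells/well in RPMI 1640 with 10% FBS were exposed to a concentration series of PROTAC compounds for 6 days at 37 °C, 5% CO2. Viability was read by CCK-8, and IC50 values were derived for proliferation inhibition.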

[2] = test system: MCF-7 cells; assay: Inhibition of cell proliferation of MCF-7 cells (CCK-8, 9 days)
How it was run: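 MCF-7 cells seeded at 800 cells/well in DMEM with 10% FBS, exposed to a range of compound concentrations for 9 days at 37°C, 5% CO2. Viability read by CCK-8; IC50 derived for proliferation inhibition.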

[3] = target: T1, ERα (Homo sapiens, UniProt P03372); assay: Degradation of ERα in MCF-7 cells (immunoblotting, 4 h)
T1 sequence (P03372 1-595): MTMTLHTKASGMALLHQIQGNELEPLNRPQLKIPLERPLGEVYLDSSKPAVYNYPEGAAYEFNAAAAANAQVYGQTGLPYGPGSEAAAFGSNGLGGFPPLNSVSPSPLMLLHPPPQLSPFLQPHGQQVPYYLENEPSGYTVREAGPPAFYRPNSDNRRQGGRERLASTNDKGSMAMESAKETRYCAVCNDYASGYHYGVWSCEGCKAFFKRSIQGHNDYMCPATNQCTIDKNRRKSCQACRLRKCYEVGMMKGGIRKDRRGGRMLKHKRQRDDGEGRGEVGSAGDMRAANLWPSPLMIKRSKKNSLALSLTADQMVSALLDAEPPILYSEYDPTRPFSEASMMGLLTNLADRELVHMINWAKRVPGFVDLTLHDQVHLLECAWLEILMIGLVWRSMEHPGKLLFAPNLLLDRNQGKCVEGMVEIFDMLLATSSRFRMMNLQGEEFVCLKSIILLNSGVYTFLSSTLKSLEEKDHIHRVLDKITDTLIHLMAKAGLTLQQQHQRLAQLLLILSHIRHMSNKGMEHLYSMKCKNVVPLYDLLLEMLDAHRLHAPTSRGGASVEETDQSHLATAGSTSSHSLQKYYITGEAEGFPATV
How it was run: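 MCF-7 cells treated 4 h at 37°C with compounds at 0.15-1000nM final. ERα in lysates measured by immunoblot, with band grayscale normalized to an internal reference protein. Degradation rate calculated against DMSO-treated control.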

[4] = target: T1, ERα; assay: Degradation of ERα in T-47D cells (immunoblotting, 4 h); set-up: host or cells: T-47D
How it was run: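 T-47D cells were treated with compound (final 0.15-1000 nM, DMSO) for 4 h at 37°C, 5% CO2. Cells were lysed in RIPA buffer with protease inhibitor, and ERα protein in the cleared lysate was measured by immunoblotting.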

[5] = treated for 9 days, CCK-8 kit (Table 6)

IC50 ([1]; Table 3) | IC50 [2, 5] | Degradation rate (%) of ERα in MCF-7 cells ([3]; 1nM compound) | Degradation rate (%) of ERα in MCF-7 cells ([3]; 10nM compound) | Degradation rate (%) of ERα in T-47D cells ([4]; 1nM compound) | Degradation rate (%) of ERα in T-47D cells ([4]; 10nM compound) | IC50 ([1]; Table 2) | IC50 ([2]; 9 days of treatment, CCK-8, Table 5) | SMILES
7 nM | 86 nM | 0% | 17% | 16% | 45% | – | – | O=C1CCC(N2Cc3cc4c(cc3C2=O)OC2(CC4)CN(C3CCC4(CC3)CN(c3ccc([C@@H]5c6ccc(O)cc6CC[C@@H]5c5ccccc5)cc3)C4)C2)C(=O)N1 (some centres unmarked) [B9]
3 nM | 37 nM | 3% | 23% | 5% | 46% | 6.6 nM | 40 nM | O=C1CCC(N2Cc3cc4c(cc3C2=O)CCC2(CN(C3CCC5(CC3)CN(c3ccc([C@@H]6c7ccc(O)cc7CC[C@@H]6c6ccccc6)cc3)C5)C2)O4)C(=O)N1 (some centres unmarked) [B10]
55 nM | 4610 nM | -40% | -16% | -34% | -38% | – | – | O=C1CCC(N2C(=O)c3cc4c(cc3C2=O)OC2(CC4)CN(CC3CC4(CCN(c5ccc([C@@H]6c7ccc(O)cc7CC[C@@H]6c6ccccc6)cc5)CC4)C3)C2)C(=O)N1 (some centres unmarked) [B11]
33 nM | 950 nM | -8% | -11% | -17% | -4% | – | – | O=C1CCC(N2Cc3cc4c(cc3C2=O)CCC2(CN(CC3CC5(CCN(c6ccc([C@@H]7c8ccc(O)cc8CC[C@@H]7c7ccccc7)cc6)CC5)C3)C2)O4)C(=O)N1 (some centres unmarked) [B12]
31.7 nM | 48.3 nM | -13% | -18% | -4% | 3% | – | – | O=C1CCC(N2Cc3cc4c(cc3C2=O)CCC2(CN(C3CCC(N5CCN(c6ccc([C@@H]7c8ccc(O)cc8CC[C@@H]7c7ccccc7)cc6)CC5)CC3)C2)O4)C(=O)N1 (some centres unmarked) [B15]
1.03 nM | 21700 nM | 55% | 55% | 54% | 68% | – | – | C[C@H]1CN(c2ccc([C@@H]3c4ccc(O)cc4CC[C@@H]3c3ccccc3)cc2)CCN1C[C@H]1CC[C@H](C(=O)N2CCC3(CC2)COc2c3ccc3c2CN(C2CCC(=O)NC2=O)C3=O)CC1 (some centres unmarked) [B36]
8.54 nM | 2800 nM | 11% | 41% | 12% | 36% | – | – | CC1(CN2CCC3(CC2)COc2c3ccc3c2CN(C2CCC(=O)NC2=O)C3=O)CCN(CC2CCN(c3ccc([C@@H]4c5ccc(O)cc5CC[C@@H]4c4ccccc4)cc3)CC2)CC1 (some centres unmarked) [B37]
4.04 nM | 232 nM | 54% | 62% | 57% | 80% | – | – | CCN(C1CCN(c2ccc([C@@H]3c4ccc(O)cc4CC[C@@H]3c3ccccc3)cc2)CC1)[C@H]1CC[C@@H](C(=O)N2CCC3(CC2)COc2c3ccc3c2CN(C2CCC(=O)NC2=O)C3=O)CC1 (some centres unmarked) [B43]
4.35 nM | 33.5 nM | 63% | 74% | 61% | 80% | – | – | O=C1CCC(N2Cc3c(ccc4c3OCC43CCN(C(=O)[C@H]4CC[C@@H](N(CC5CC5)C5CCN(c6ccc([C@@H]7c8ccc(O)cc8CC[C@@H]7c7ccccc7)cc6)CC5)CC4)CC3)C2=O)C(=O)N1 (some centres unmarked) [B48]
1.68 nM | 31.1 nM | 42% | 63% | 49% | 81% | – | – | O=C1CCC(N2Cc3c(ccc4c3OCC43CCN(C4CCN(C(=O)C5CCN(c6ccc([C@@H]7c8ccc(O)cc8CC[C@@H]7c7ccccc7)cc6)CC5)[C@@H](C(=O)N5CCC(F)(F)C5)C4)CC3)C2=O)C(=O)N1 (some centres unmarked) [C2]
1.17 nM | 67 nM | 38% | 75% | 54% | 85% | – | – | O=C1CCC(N2Cc3c(ccc4c3OCC43CCN(C4CCN(C(=O)C5CCN(c6ccc([C@@H]7c8ccc(O)cc8CC[C@@H]7c7ccccc7)cc6)CC5)[C@@H](C(=O)N5CC(F)(F)C5)C4)CC3)C2=O)C(=O)N1 (some centres unmarked) [C4]
1.3 nM | 6.7 nM | 43% | 66% | 52% | 77% | – | – | O=C1CCC(N2Cc3c(ccc4c3OCC43CCN(C(=O)C4CCC(CN5CCN(c6ccc(C7c8ccc(O)cc8CCC7c7ccccc7)cc6)CC5)CC4)CC3)C2=O)C(=O)N1 (centres unmarked) [C5]

The remaining lines, values behind:

SMILES | IC50 ([1]; Table 3) | IC50 [2, 5] | Degradation rate (%) of ERα in MCF-7 cells ([3]; 1nM compound) | Degradation rate (%) of ERα in MCF-7 cells ([3]; 10nM compound) | Degradation rate (%) of ERα in T-47D cells ([4]; 1nM compound) | Degradation rate (%) of ERα in T-47D cells ([4]; 10nM compound) | IC50 ([1]; Table 2) | IC50 ([2]; 9 days of treatment, CCK-8, Table 5)
C[C@@H]1Cc2c(ccc3[nH]ncc23)[C@@H](c2c(F)cc(N3CCC(C(=O)N4CCC(N5CCC6(CC5)COc5c6ccc6c5CN(C5CCC(=O)NC5=O)C6=O)CC4)CC3)cc2F)N1CC(F)F (some centres unmarked) [B38] | 1.23 nM | 90.5 nM | 63% | 57% | 57% | 63% | – | –
O=C1CCC(N2Cc3c(ccc4c3OCC43CCN(C(=O)c4ccc(CN5CCN(c6ccc([C@@H]7c8ccc(O)cc8CC[C@@H]7c7ccccc7)cc6)CC5)cc4)CC3)C2=O)C(=O)N1 (some centres unmarked) [B39] | 1.83 nM | 25100 nM | 41% | 49% | 47% | 66% | – | –
C[C@@H]1CN(C(=O)C2CCN(c3cc(F)c(C4c5ccc6[nH]ncc6c5C[C@@H](C)N4CC(F)F)c(F)c3)CC2)CCC1N1CCC2(CC1)COc1c2ccc2c1CN(C1CCC(=O)NC1=O)C2=O (some centres unmarked) [B40] | 1 nM | 45.3 nM | 54% | 61% | 64% | 68% | – | –
O=C1CCC(N2Cc3c(ccc4c3OCC43CCN(C(=O)c4ccc(CN5CCN(c6ccc([C@@H]7c8ccc(O)cc8CC[C@@H]7c7ccccc7)cc6)CC5)cn4)CC3)C2=O)C(=O)N1 (some centres unmarked) [B41] | 0.75 nM | 29200 nM | 59% | 53% | 66% | 74% | – | –
C[C@@H]1Cc2c(ccc3[nH]ncc23)C(c2ccc(N3CCC(C(=O)N4CCC(N5CCC6(CC5)COc5c6ccc6c5CN(C5CCC(=O)NC5=O)C6=O)CC4)CC3)cn2)N1CC(F)(F)F (some centres unmarked) [B42] | 2460 nM | 90900 nM | 17% | 26% | 3% | 13% | – | –
O=C1CCC(N2Cc3c(ccc4c3OCC43CCN(C(=O)c4ccc(CN5CCN(c6ccc([C@@H]7c8ccc(O)cc8CC[C@@H]7c7ccccc7)cc6)CC5)nc4)CC3)C2=O)C(=O)N1 (some centres unmarked) [B47] | 1.29 nM | 27100 nM | 28% | 33% | 59% | 65% | – | –
C[C@@H]1Cc2c(ccc3[nH]ncc23)C(c2ccc(N3CC4(CCC(N5CCC6(CC5)COc5c6ccc6c5CN(C5CCC(=O)NC5=O)C6=O)CC4)C3)cn2)N1CC(F)(F)F (some centres unmarked) [B49] | 316 nM | 7150 nM | 24% | 43% | 42% | 68% | – | –
O=C1CCC(N2Cc3c(ccc4c3OCC43CCN(C4CCN(C(=O)C5CCN(c6ccc([C@@H]7c8ccc(O)cc8CC[C@@H]7c7ccccc7)cc6)CC5)[C@@H](C(=O)N5CCC(F)(F)CC5)C4)CC3)C2=O)C(=O)N1 (some centres unmarked) [C1] | 1.15 nM | 8.05 nM | 18% | 49% | 50% | 72% | – | –
